“And” between values parts separate entries of the source, which are not always exact repeats. Identical values can stand only once.
Experiments:
[1] = Prodrug aqueous stability at pH 7.4, 6.0 and 1.2; format: physicochemical
[2] = cited from earlier work
[3] = cited from earlier work; remark: listed apart in the source
[4] = test system: BlaC; details: cited from earlier work

C[C@@H](O)[C@H]1C(=O)N2C(C(=O)OCOC(=O)O[C@H]3CCCCc4ccccc43)=C(S[C@@H]3CN[C@H](C(=O)N(C)C)C3)[C@H](C)[C@H]12 [Compound 19, (S)-Benzosuber-1-yloxycarbonyloxymethyl (1R, 5S,6S)-2-{[(2S,4S)-2-(N,N-dimethylcarbamoyl)pyrrolidin-4-yl]thio}-6-[(1R)-1-hydroxyethyl]-1-methylcarbapen-2-em-3-carboxylate]
times more stable to hydrolysis compared with 1-tetralyl (18 and 21) and 1-indanyl (17 and 20) prodrugs ([1]; intestinal pH): 37 times
times more stable to hydrolysis compared with 1-tetralyl (18 and 21) and 1-indanyl (17 and 20) prodrugs ([1]; physiological pH): 20 times

CC(OC(=O)O[C@H]1CCCCc2ccccc21)OC(=O)C1=C(S[C@@H]2CN[C@H](C(=O)N(C)C)C2)[C@H](C)[C@@H]2[C@@H]([C@@H](C)O)C(=O)N12 (stereo partly drawn) [Compound 23a, (1S,1′S/R)-Benzosuber-1-yloxycarbonyloxyethyl (1R,5S,6S)-2-{[(2S,4S)-2-(N,N-dimethylcarbamoyl)pyrrolidin-4-yl]thio}-6-[(1R)-1-hydroxyethyl]-1-methylcarbapen-2-em-3-carboxylate]
improvement of stability relative to prodrug 19 ([1]; 100 µM): about 2 fold

C[C@@H](O)[C@H]1C(=O)N2C(C(=O)OCOC(=O)O[C@@H]3CCc4ccccc43)=C(S[C@@H]3CN[C@H](C(=O)N(C)C)C3)[C@H](C)[C@H]12 [Compound 20, (R)-Indan-1-yloxycarbonyloxymethyl (1/R, 5S,6S)-2-{[(2S,4S)-2-(N,N-dimethylcarbamoyl)pyrrolidin-4-yl]thio}-6-[(1/R)-1-hydroxyethyl]-1-methylcarbapen-2-em-3-carboxylate]
half-life at 100 µM ([1]; buffer, pH 7.4): < 1 min

C[C@@H](O)[C@H]1C(=O)N2C(C(=O)O)=C(S[C@@H]3CN[C@H](C(=O)N(C)C)C3)[C@H](C)[C@H]12 [Meropenem]
oral absorption [2]: negligible
Log D [3]: < −2.5

O=C(O)[C@H]1/C(=C/CO)O[C@@H]2CC(=O)N21 [clavulanate]
inhibition of BlaC [4]: irreversibly inhibited

C[C@@H](O)[C@H]1C(=O)N2C(C(=O)OCOC(=O)O[C@@H]3CCCCc4ccccc43)=C(S[C@@H]3CN[C@H](C(=O)N(C)C)C3)[C@H](C)[C@H]12 [Compound 22, (R)-Benzosuber-1-yloxycarbonyloxymethyl (1R,5S, 6S)-2-{[(2S,4S)-2-(N,N-dimethylcarbamoyl)pyrrolidin-4-yl]thio}-6-[(1R)-1-hydroxyethyl]-1-methylcarbapen-2-em-3-carboxylate]
times more stable to hydrolysis compared with 1-tetralyl (18 and 21) and 1-indanyl (17 and 20) prodrugs ([1]; intestinal pH): 37 times
times more stable to hydrolysis compared with 1-tetralyl (18 and 21) and 1-indanyl (17 and 20) prodrugs ([1]; physiological pH): 20 times

CC(=O)N1C[C@@H](SC2=C(C(=O)OCOC(=O)O[C@H]3CCCCc4ccccc43)N3C(=O)[C@H]([C@@H](C)O)[C@H]3[C@H]2C)C[C@H]1C(=O)N(C)C [Compound 24a, (S)-Benzosuber-1-yloxycarbonyloxymethyl (1R,5S,6S)-2-{[(2S,4S)-1-acetyl-2-(N,N-dimethylcarbamoyl)pyrrolidin-4-yl]thio}-6-[(1R)-1-hydroxyethyl]-1-methylcarbapen-2-em-3-carboxylate]
change in the hydrolysis rate relative to prodrug 19 ([1]; N-acetyl derivative, aqueous buffers): no significant change

CC(C)OC(=O)OC(C)OC(=O)C1=C(S[C@@H]2CN[C@H](C(=O)N(C)C)C2)[C@H](C)[C@@H]2[C@@H]([C@@H](C)O)C(=O)N12 (some centres unmarked) [Compound 2]
% of each diastereomer hydrolyzed to 1 ([1]; physiological pH 7.4, period of 2 hours): 10% and 13%

— PMC3740032 (Bioorganic & medicinal chemistry, 2013)
